Data on 21 compounds can be found in patent US8119624B2, “Fused phenyl amido heterocyclic compounds” (Pfizer Inc., priority 2006, dated 2012).

The assay concerns the target T1, Full-length glucokinase (beta cell isoform) (Homo sapiens, UniProt P35557).
T1 construct: Full-length glucokinase (beta cell isoform) was His-tagged at N-terminus; His tag (N); made in house
T1 sequence (P35557 1-465): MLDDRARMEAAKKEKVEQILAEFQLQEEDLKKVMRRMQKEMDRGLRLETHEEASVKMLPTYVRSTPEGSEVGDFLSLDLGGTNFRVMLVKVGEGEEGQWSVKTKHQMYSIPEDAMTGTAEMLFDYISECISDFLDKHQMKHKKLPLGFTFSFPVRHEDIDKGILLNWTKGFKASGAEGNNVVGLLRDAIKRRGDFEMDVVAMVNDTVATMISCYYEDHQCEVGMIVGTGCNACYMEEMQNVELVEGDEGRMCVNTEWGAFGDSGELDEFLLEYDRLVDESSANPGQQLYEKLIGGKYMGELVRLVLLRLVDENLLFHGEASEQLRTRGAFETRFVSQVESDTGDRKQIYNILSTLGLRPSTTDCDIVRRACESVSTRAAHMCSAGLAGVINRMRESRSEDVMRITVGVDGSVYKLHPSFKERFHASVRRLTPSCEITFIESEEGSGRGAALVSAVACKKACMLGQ
The assay can be described thus: Glucokinase biochemical assay (PK/LDH-coupled, NADH depletion at 340 nm): % activation, EC50, % max activation. Particulars: 5 mM glucose; for activation at 10 µM: read-out: % Activation at 10 uM; for pEC50: read-out: EC50; for Emax: fitted maximum activation, read-out: % Max Activation. The procedure, abridged:
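N-terminally His-tagged full-length human beta-cell glucokinase, room temperature, 5 mM glucose, 1 mM ATP, PK/LDH-coupled with 0.7 mM NADH, 1% DMSO final. Initial velocity from the 200–900 s slope of A340 decline. % activation = (Va/Vo−1)×100, measured across compound concentrations.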

Setting [1] is: 10 uM compound, % Activation=(Va/Vo−1)×100.
[2] abbreviates: compound at 10 uM, 1 mM ATP, room temperature.

pEC50: −log10 of the molar value. Where two headings read alike, the source gives them in different places.

What is called pEC50 is the EC50 on a negative log10 scale, so that one unit is a factor of ten. With `C[C@@H](CO)COc1cc(C(=O)Nc2ccn(C)n2)cc2c1CC(C)(C)O2` [Example 102, 4-((S)-3-Hydroxy-2-methyl-propoxy)-2,2-dimethyl-2,3-dihydro-benzofuran-6-carboxylic acid (1-methyl-1H-pyrazol-3-yl)-amide], the Emax worked out at 137%. Under setting [1], the activation at 10 µM worked out at 92.6%. The pEC50 (GK activation) is 5.06.
For `Cc1ccc(NC(=O)c2cc(Oc3ccc(S(C)(=O)=O)cc3)c3c(c2)OC(C)(C)C3)nc1` [Example 3, 4-(4-Methanesulfonyl-phenoxy)-2,2-dimethyl-2,3-dihydrobenzofuran-6-carboxylic acid(5-methyl-pyridin-2-yl)-amide], in that order: 140%, 145% and 6.46.
With `Cc1ccc(NC(=O)c2cc(Oc3ccc(S(C)(=O)=O)cc3)c3c(c2)C(=O)N(C)C3)nc1` [Example 376, 2-Methyl-N-(5-methylpyridin-2-yl)-7-(4-(methylsulfonyl)-phenoxy)-3-oxoisoindoline-5-carboxamide], the negative logarithm of the EC50 (pEC50) (1 mM ATP, room temperature) was 5.19. The activation at 10 µM under setting [2] is 73.1%. Moreover, the Emax (1 mM ATP) amounted to 90%.
`Cc1ccc(NC(=O)c2cc(Oc3ccc(S(=O)(=O)N4CCC4)cc3)c3cc(C)oc3c2)nc1` [Example 297, 4-(4-(Azetidin-1-ylsulfonyl)phenoxy)-2-methyl-N-(5-methylpyridin-2-yl)-benzofuran-6-carboxamide]: the Emax was found to be 68%. Further, under setting [1], the activation at 10 µM came to 61.9%. Besides, the pEC50 (GK activation) was 6.89.
Consider `CCS(=O)(=O)c1ccc(Oc2cc(C(=O)Nc3cnn(C)n3)cc3c2CC(C)(C)O3)cc1` [Example 133, 4-(4-Ethanesulfonyl-phenoxy)-2,2-dimethyl-2,3-dihydro-benzofuran-6-carboxylic acid (2-methyl-2H-[1,2,3]triazol-4-yl)-amide], for which the Emax came out at 293%. Under setting [1], the activation at 10 µM was 308%. Also, the negative logarithm of the EC50 (pEC50) (GK activation) is 6.92.
For `Cc1cc2c(Oc3ccc(S(C)(=O)=O)cc3)cc(C(=O)Nc3ccc(CO)cn3)cc2o1` [Example 266, N-(5-(Hydroxymethyl)pyridin-2-yl)-2-methyl-4-(4-(methylsulfonyl)-phenoxy)-benzofuran-6-carboxamide] the same measures were 91%, 81.4% and 6.00.
For `CN(C)C(=O)c1ncc(Oc2cc(C(=O)Nc3ccn(C)n3)cc3c2CC(C)(C)O3)cc1F` [Example 178, 5-[2,2-Dimethyl-6-(1-methyl-1H-pyrazol-3-ylcarbamoyl)-2,3-dihydro-benzofuran-4-yloxy]-3-fluoro-pyridine-2-carboxylic acid dimethylamide], in that order: 147%, 198% and 7.05.
For `CN(C)C(=O)c1ccc(Oc2cc(C(=O)Nc3ccn(C)n3)cc3c2CC(C)(C)O3)c(Cl)c1` [Example 107, 4-(2-Chloro-4-dimethylcarbamoyl-phenoxy)-2,2-dimethyl-2,3-dihydro-benzofuran-6-carboxylic acid (1-methyl-1H-pyrazol-3-yl)-amide], in that order: 163%, 173% and 7.01.
As for `Cc1cc2c(Oc3ccc(S(=O)(=O)N(C)C)c(F)c3)cc(C(=O)Nc3cnc(N(C)C)cn3)cc2o1` [Example 308, N-[5-(Dimethylamino)pyrazin-2-yl]-4-{4-[(dimethylamino)-sulfonyl]-3-fluorophenoxy}-2-methyl-1-benzofuran-6-carboxamide], the Emax came out at 131%. The activation at 10 µM under setting [1] came out at 141%. Further, the pEC50 (GK activation) is 6.96.
`Cc1ccc(NC(=O)c2cc(Oc3ccc(S(C)(=O)=O)cc3)cc3c2CC(C)O3)nc1` (stereo not drawn) [Example 2, 6-(4-Methanesulfonyl-phenoxy)-2-methyl-2,3-dihydrobenzofuran-4-carboxylic acid(5-methyl-pyridin-2-yl)-amide]: the Emax amounted to 152%. In addition, the activation at 10 µM under setting [1] amounted to 113%. Further, the pEC50 (GK activation) is 5.28.
As to `Cc1ccc(NC(=O)c2cc(Oc3ccc(S(=O)(=O)C4CC4)c(F)c3)c3c(c2)OC(C)(CO)C3)nc1` (single isomer, unassigned; (+)) [Example 401, (+)-4-(4-Cyclopropanesulfonyl-3-fluoro-phenoxy)-2-hydroxymethyl-2-methyl-2,3-dihydro-benzofuran-6-carboxylic acid(5-methyl-pyridin-2-yl)-amide], the negative logarithm of the EC50 (pEC50) (1 mM ATP, room temperature) was 6.54. Further, the activation at 10 µM under setting [2] was found to be 131%. The Emax (1 mM ATP) came to 139%.
In the case of `Cc1ccc(NC(=O)c2cc(Oc3ccc(S(C)(=O)=O)cc3F)c3c(c2)OC(C)(C)C3)nc1` [Example 120, 4-(2-Fluoro-4-methanesulfonyl-phenoxy)-2,2-dimethyl-2,3-dihydro-benzofuran-6-carboxylic acid (5-methyl-pyridin-2-yl)-amide], the Emax amounted to 79%. The activation at 10 µM under setting [1] was found to be 80.5%. Moreover, the pEC50 (GK activation) was 6.70.
For `CN(C)C(=O)c1ccc(Oc2cc(C(=O)Nc3ccn(C)n3)cc3c2CC(C)(C)O3)cc1Cl` [Example 108, 4-(3-Chloro-4-dimethylcarbamoyl-phenoxy)-2,2-dimethyl-2,3-dihydro-benzofuran-6-carboxylic acid (1-methyl-1H-pyrazol-3-yl)-amide] the same measures were 107%, 82.2% and 7.12.
For `CC1(C)Cc2c(Oc3ccc(S(C)(=O)=O)cc3)cc(C(=O)Nc3ccccn3)cc2O1` [Example 19, 4-(4-Methanesulfonyl-phenoxy)-2,2-dimethyl-2,3-dihydro-benzofuran-6-carbo-xylic acid pyridin-2-ylamide], in that order: 156%, 139% and 6.43.
For `Cc1ccc(NC(=O)c2cc(Oc3ccc(S(C)(=O)=O)cc3)c3cc(C(F)F)oc3c2)nc1` [Example 321, 2-(Difluoromethyl)-N-(5-methylpyridin-2-yl)-4-[4-(methylsulfonyl)-phenoxy]-1-benzofuran-6-carboxamide], in that order: 132%, 100% and 5.37.
In the case of `Cn1ncc(NC(=O)c2cc(Oc3ccc(C(=O)N4CCC4)nc3)c3c(c2)OC(C)(C)C3)n1` [Example 169, 4-[6-(Azetidine-1-carbonyl)-pyridin-3-yloxy]-2,2-dimethyl-2,3-dihydro-benzofuran-6-carboxylic acid (2-methyl-2H-[1,2,3]triazol-4-yl)-amide], the Emax came out at 141%. Besides, under setting [1], the activation at 10 µM is 125%. For the same compound, under “GK activation”, the negative-log EC50 (pEC50) was 7.25.
For `Cc1cc2c(Oc3ccc(S(=O)(=O)N(C)C)c(F)c3)cc(C(=O)Nc3ccn(C)n3)cc2o1` [Example 305, 4-{4-[(Dimethylamino)sulfonyl]-3-fluorophenoxy}-2-methyl-N-(1-methyl-1H-pyrazol-3-yl)-1-benzofuran-6-carboxamide], in that order: 168%, 166% and 6.85.
For `COCC1Cc2c(Oc3ccc(C(=O)N(C)C)c(F)c3)cc(C(=O)Nc3ccn(C)n3)cc2O1` (stereo not drawn) [Example 205, 4-(4-Dimethylcarbamoyl-3-fluoro-phenoxy)-2-methoxymethyl-2,3-dihydro-benzofuran-6-carboxylic acid (1-methyl-1H-pyrazol-3-yl)-amide], in that order: 94.5%, 90.8% and 6.38.
For `Cn1ccc(NC(=O)c2cc(Oc3ccc(C(=O)N4CCCC4)c(F)c3)c3c(c2)OC(C)(C)C3)n1` [Example 56, 4-[3-Fluoro-4-(pyrrolidine-1-carbonyl)-phenoxy]-2,2-dimethyl-2,3-dihydro-benzofuran-6-carboxylic acid(1-methyl-1H-pyrazol-3-yl)-amide] the same measures were 108%, 107% and 7.29.
For `Cn1ccc(NC(=O)c2cc(Oc3ccc(S(C)(=O)=O)cc3)c3c(c2)OC(C)(CO)C3)n1` (stereo not drawn) [Example 227, 2-Hydroxymethyl-4-(4-methanesulfonyl-phenoxy)-2-methyl-2,3-dihydro-benzofuran-6-carboxylic acid (1-methyl-1H-pyrazol-3-yl)-amide], the Emax was 184%. Further, the activation at 10 µM under setting [1] amounted to 165%. The pEC50 (GK activation) was 6.16.
For `COCC1(C)Cc2c(Oc3ccc(C(=O)N(C)C)c(F)c3)cc(C(=O)Nc3ccn(C)n3)cc2O1` (stereo not drawn) [Example 234, 4-(4-Dimethylcarbamoyl-3-fluoro-phenoxy)-2-methoxymethyl-2-methyl-2,3-dihydro-benzofuran-6-carboxylic acid (1-methyl-1H-pyrazol-3-yl)-amide], in that order: 112%, 121% and 7.12.
